Data as given in the supplement of paper PMC10307832.

Experiments:
Assay in all cases: relative viability (nuclei count vs DMSO), 5 days (fraction); higher = more cells survive
Kobe2602 + Navitoclax = compound: C1=CC(=CC=C1NC(=S)NNC2=C(C=C(C=C2[N+](=O)[O-])C(F)(F)F)[N+](=O)[O-])F [Kobe2602] + CC1(C)CCC(c2ccc(Cl)cc2)=C(CN2CCN(c3ccc(C(=O)NS(=O)(=O)c4ccc(N[C@H](CCN5CCOCC5)CSc5ccccc5)c(S(=O)(=O)C(F)(F)F)c4)cc3)CC2)C1 [Navitoclax] (partner 0.5 µM)
Method in brief: (§1)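 Each reported value is a median over duplicate plates. It expresses relative viability: treated-well nuclei count divided by vehicle-well nuclei count. Lung cancer cell lines in 1536-well plates were dosed by pin tool a day after seeding, alone with one drug or with a fixed anchor-drug dose plus five library-drug doses (not always all listed) in √10 steps, and nuclei were counted after 5 days.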

Kobe2602 + AZD7762 = compound: C1=CC(=CC=C1NC(=S)NNC2=C(C=C(C=C2[N+](=O)[O-])C(F)(F)F)[N+](=O)[O-])F [Kobe2602] + NC(=O)Nc1cc(-c2cccc(F)c2)sc1C(=O)N[C@H]1CCCNC1 [AZD7762] (partner 0.2 µM)
Method in brief: as §1

[1] = compound: COc1cc2nccc(Oc3ccc(NC(=O)C4(C(=O)Nc5ccc(F)cc5)CC4)cc3)c2cc1OC [Cabozantinib] + CC(=O)c1c(C)c2cnc(Nc3ccc(N4CCNCC4)cn3)nc2n(C2CCCC2)c1=O [Palbociclib] (partner 0.5 µM)
Method in brief: as §1

Zosuquidar + Palbociclib = compound: O[C@@H](COc1cccc2ncccc12)CN1CCN([C@@H]2c3ccccc3[C@@H]3[C@H](c4ccccc42)C3(F)F)CC1 [Zosuquidar] + CC(=O)c1c(C)c2cnc(Nc3ccc(N4CCNCC4)cn3)nc2n(C2CCCC2)c1=O [Palbociclib] (partner 0.5 µM)
Method in brief: as §1

Row | Cell Line | relative viability (Kobe2602 + Navitoclax; first compound 0.2 µM) | relative viability (Kobe2602 + Navitoclax; first compound 0.6325 µM) | relative viability (Kobe2602 + Navitoclax; first compound 2 µM) | relative viability (Kobe2602 + Navitoclax; first compound 6.325 µM) | relative viability (Kobe2602 + Navitoclax; first compound 20 µM) | relative viability (Kobe2602 + AZD7762; first compound 0.2 µM) | relative viability (Kobe2602 + AZD7762; first compound 0.6325 µM) | relative viability (Kobe2602 + AZD7762; first compound 2 µM) | relative viability (Kobe2602 + AZD7762; first compound 6.325 µM) | relative viability (Kobe2602 + AZD7762; first compound 20 µM) | relative viability ([1]; first compound 0.02 µM) | relative viability ([1]; first compound 0.06325 µM) | relative viability ([1]; first compound 0.2 µM) | relative viability ([1]; first compound 0.6325 µM) | relative viability ([1]; first compound 2 µM) | relative viability (Zosuquidar + Palbociclib; first compound 0.01 µM) | relative viability (Zosuquidar + Palbociclib; first compound 0.03162 µM) | relative viability (Zosuquidar + Palbociclib; first compound 0.1 µM) | relative viability (Zosuquidar + Palbociclib; first compound 0.3162 µM) | relative viability (Zosuquidar + Palbociclib; first compound 1 µM)
1 | HOP-62 | 1.01 | 1.03 | 0.986 | 1 | 1.04 | 0.635 | 0.529 | 0.667 | 0.447 | 0.537 | 0.503 | 0.488 | 0.416 | 0.506 | 0.491 | 0.444 | 0.535 | 0.444 | 0.426 | 0.401
2 | NCI-H838 | 1.17 | 1.22 | 1.12 | 1.13 | 1.17 | 0.918 | 1.01 | 0.874 | 0.915 | 0.898 | 0.216 | 0.244 | 0.231 | 0.218 | 0.21 | 0.217 | 0.223 | 0.218 | 0.225 | 0.227
3 | LK-2 | 0.899 | 1.06 | 0.815 | 0.825 | 0.891 | 0.464 | 0.385 | 0.427 | 0.302 | 0.553 |  | 0.969 | 0.704 | 0.69 | 0.636 | 0.666 | 0.722 | 0.563 | 0.768 | 0.715
4 | BEN | 0.0992 | 0.0652 | 0.0611 | 0.0659 | 0.0705 | 0.74 | 0.73 | 0.74 | 0.651 | 0.691 | 0.525 | 0.507 | 0.47 | 0.425 | 0.463 | 0.467 | 0.491 | 0.456 | 0.455 | 0.489
5 | NCI-H23 | 0.744 | 0.741 | 0.97 | 0.679 | 0.993 | 0.332 | 0.312 | 0.217 | 0.197 | 0.182 |  | 0.541 | 0.579 | 0.541 | 0.437 | 0.45 |  | 0.516 | 0.578 | 0.524
6 | ChaGo-K-1 | 1.12 | 1.26 | 1.02 | 1.05 | 0.933 | 0.891 | 0.836 | 0.878 | 0.892 | 0.872 | 1.05 | 1.05 | 0.906 | 0.899 | 0.871 | 0.885 | 0.994 | 1.02 | 0.917 | 0.947
7 | NCI-H1944 | 1.02 | 1.04 | 1.09 | 1.08 | 1.13 | 0.561 | 0.553 | 0.704 | 0.496 | 0.585 | 0.357 | 0.315 | 0.317 | 0.299 | 0.349 | 0.343 | 0.358 | 0.342 | 0.391 | 0.319
8 | NCI-H1792 | 0.67 | 0.626 | 0.604 | 0.609 | 0.695 | 0.553 | 0.792 | 0.593 | 0.578 | 0.769 |  | 0.707 | 0.668 | 0.679 | 0.579 | 0.665 | 0.583 |  | 0.673 | 0.703
9 | NCI-H2085 | 1.2 | 1.16 | 1.08 | 1.23 | 1.14 | 0.931 | 1.01 | 0.986 | 0.87 | 0.943 | 0.519 | 0.469 | 0.524 | 0.476 | 0.498 | 0.5 | 0.469 |  | 0.508 | 0.484
10 | LC-2-ad | 0.378 | 0.374 | 0.453 | 0.371 | 0.404 | 0.822 | 0.879 | 0.85 | 0.833 | 0.828 | 0.569 | 0.569 | 0.472 | 0.367 | 0.341 | 0.468 | 0.465 | 0.492 | 0.493 | 0.486
11 | 201T | 1.23 | 1.18 | 1.18 | 1.3 | 1.29 | 0.614 | 0.619 | 0.603 | 0.611 | 0.799 | 0.352 | 0.342 | 0.332 | 0.371 | 0.384 | 0.349 | 0.343 | 0.365 | 0.354 | 0.337
12 | NCI-H1793 | 0.528 | 0.445 | 0.415 | 0.413 | 0.459 | 0.654 | 0.352 | 0.641 | 0.287 | 0.539 | 0.338 | 0.313 |  | 0.277 | 0.252 | 0.271 |  |  | 0.333 | 0.306
13 | NCI-H2347 | 0.697 | 0.82 | 0.753 | 0.789 | 0.807 | 0.85 | 0.77 | 0.798 | 0.713 | 0.806 | 0.474 | 0.466 | 0.49 | 0.478 | 0.401 | 0.403 | 0.466 | 0.432 | 0.413 | 0.43
14 | LXF-289 | 0.95 | 0.959 | 0.873 | 0.941 | 0.923 | 1.06 | 1.08 | 1.08 | 1.06 | 1.08 | 0.582 | 0.625 | 0.532 | 0.618 | 0.559 | 0.576 | 0.599 | 0.614 | 0.582 | 0.584
15 | EKVX | 0.926 | 0.926 | 0.955 | 0.88 | 0.9 | 0.724 | 0.701 | 0.736 | 0.722 | 0.865 | 0.397 | 0.41 | 0.307 | 0.394 | 0.544 | 0.377 | 0.39 |  | 0.411 | 0.375
16 | NCI-H1734 | 0.899 | 0.924 | 0.842 | 0.837 | 0.926 | 0.554 | 0.656 | 0.586 | 0.549 | 0.503 | 0.4 | 0.339 | 0.381 | 0.389 | 0.325 | 0.337 | 0.383 | 0.404 | 0.306 | 0.344
